Test results reported in PubChem BioAssay AID588620 (NMMLSC, 2011).
The source made the active and inactive calls.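 Rule for the calls: active = fitted half-maximal concentration below 30 µM for cell fluorescence in pump-free yeast, so likely self-fluorescent; inactive = the rest.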

Experiment: concentration-dependent intrinsic compound fluorescence, S. cerevisiae AD/pABC3, flow cytometry, Cherry Pick1 hits, artefact control for antifungal efflux pump inhibitor project, dose response (AID 588620);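 note: red emission of unstained cells excited at 488 nm measured in PE-Texas Red channel; cell median fluorescence as percent of DMSO wells so 100% equals vehicle baseline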
Settings: S. cerevisiae AD/pABC3 compound autofluorescence, flow cytometry; at 33.1 µM (top of the series)

| SMILES | fluorescence response, % of control |
| --- | --- |
| O=C(/C=C/c1ccccc1[N+](=O)[O-])NCCc1ccc(F)cc1 | 90.8% (inactive) |
| O=c1[nH]c(C2CCN(S(=O)(=O)c3ccccc3C(F)(F)F)CC2)nc2c1nnn2Cc1cccc(F)c1 | 83.7% (inactive) |
| NC1=NC[C@H](Cc2ccc(O)cc2)N1CCc1cc(C(F)(F)F)cc(C(F)(F)F)c1 | 83.1% (inactive) |
| Cc1ccc2nc(-c3ccccc3)cc(C(=O)N3CCN(S(=O)(=O)c4c(C)noc4C)CC3)c2c1 | 109% (inactive) |
| COc1cccc(C2CC(c3ccccc3)=NN2S(=O)(=O)c2ccc(C)cc2)c1OC (stereo not given) | 108% (inactive) |
| O=C(CSc1nnc(Cc2cccs2)n1Cc1ccco1)Nc1cccc(Cl)c1 | 128% (inactive) |
| COc1ccc(N2C(=O)CC(N3CCN(c4ccc(C(=O)c5cccnc5)cc4)CC3)C2=O)cc1 (stereo not given) | 88.6% (inactive) |
| O=C1/C(=C/c2ccc(O)c(O)c2)Oc2cc(O)ccc21 | 426% (inactive) |
| CCN1CCN(c2cc(SC(C)C)nc(-c3ccc(OC)cc3)n2)CC1 | 109% (inactive) |
| Cc1nn(CC(=O)NCc2cccs2)c(=O)c2nn(-c3ccccc3)c(C)c12 | 99% (inactive) |
| CCCCc1nnc(NC(=O)COc2ccc3c(C)cc(=O)oc3c2)s1 | 134% (inactive) |
| C[C@H](CO)N1C[C@H](C)[C@@H](CN(C)S(=O)(=O)c2ccccc2)Oc2c(NC(=O)Nc3ccccc3)cccc2C1=O | 83.7% (inactive) |
| COc1ccc([C@H]2CC(=O)C=C(c3ccnc4ccc(Cl)cc34)C2)cc1 | 92.4% (inactive) |
| NC1=NC[C@H](Cc2ccc(O)cc2)N1CCCCC1CCCCC1 | 92.2% (inactive) |
| COc1ccc(Cn2nnc3c(=O)[nH]c(C4CCN(S(=O)(=O)c5ccc(C)cc5)CC4)nc32)cc1 | 95.7% (inactive) |
| COc1ccc(-c2nc3ccccc3c(=O)n2CCOc2ccccc2C)cc1 | 103% (inactive) |
| O=C1Nc2ccccc2/C1=C/c1cnc(-c2ccccc2)[nH]1 | 128% (inactive) |
| O=C(CSc1nc2nc3c(cc2c(=O)n1-c1ccccc1)CCCC3)Nc1cccc2ccccc12 | 101% (inactive) |
| COc1ccc2sc(-c3ccccc3OC)c(-c3ccc(OCCN4CCOCC4)cc3)c2c1 | 81.8% (inactive) |
| Cc1ccc(Cn2nnc3c(=O)[nH]c(C4CCN(S(=O)(=O)c5ccccc5)CC4)nc32)cc1 | 87.4% (inactive) |

| SMILES | fluorescence response, % of control |
| --- | --- |
| Cc1ccc(CSC2=Nc3ccccc3C3=NC(CC(=O)NCc4ccco4)C(=O)N23)cc1 (stereo not given) | 89% (inactive) |
| CCCCn1c(=N)n(CC(O)COc2ccc(C)cc2)c2ccccc21 (stereo not given) | 106% (inactive) |
| COc1ccc(CCOC(=O)c2ccc(N)c([N+](=O)[O-])c2)cc1 | 110% (inactive) |
| Cc1cc(Cl)c(OCCCn2ccnc2)c(Br)c1 | 83.7% (inactive) |
| O=[N+]([O-])c1cc(/C=N\Nc2ccccn2)ccc1Cl | 96.1% (inactive) |
| O=C(Nc1ccc(NC(=O)c2cccs2)cc1)c1ccc2ccccc2c1 | 125% (inactive) |
| CCCCCCCCn1ccc(=N)cc1 | 102% (inactive) |
| NC(=O)c1nc(-c2ccco2)nc2c1[nH]c(=O)n2-c1ccc(Cl)c(Cl)c1 | 112% (inactive) |
| CCOC(=O)C(NC(=O)CC)(Nc1ccccc1)C(F)(F)F (stereo not given) | 103% (inactive) |
| CCCCCCCCCC[N+](C)(C)CC/C=C1/c2ccccc2Sc2ccc(Cl)cc21 | 105% (inactive) |
| Cc1ccc2c(c1)[C@H]1[C@H](CO2)[C@H](c2ccccc2)[C@]2(C)C(=O)Nc3cc(F)c(F)cc3C(=O)N12 | 90.5% (inactive) |
| COc1ccc(CNC(=O)C(C)n2nc(C)c3c(C)n(-c4ccc(C)cc4)nc3c2=O)cc1 (stereo not given) | 77.9% (inactive) |
| CCc1c(C)nc2cc(-c3cc(OC)cc(OC)c3)nn2c1N1CCN(CCN2CCOCC2)CC1 | 130% (inactive) |
| Cc1ccc(-c2cc(C(=O)Nc3ccc(S(=O)(=O)Nc4ncccn4)cc3)c3ccccc3n2)cc1 | 96.3% (inactive) |
| O=C1C(Cc2ccccc2)Nc2ncnc(N3CCN(c4ccccc4)CC3)c2N1Cc1ccc(Cl)cc1 (stereo not given) | 97.1% (inactive) |
| COc1ccccc1-c1sc2cc3c(cc2c1-c1ccc(OCCN2CCOCC2)cc1)OCO3 | 87.6% (inactive) |
| CCOC(=O)c1ccc(S(=O)(=O)NNS(=O)(=O)c2ccc(C)cc2)cc1 | 112% (inactive) |
| COc1ccc(/C=C2\SC(c3ccc(C)cc3)=NC2=O)cc1OC | 289% (inactive) |
| Clc1ccc(C(c2ccc(Cl)cc2)n2cc[n+](CC(OCc3ccc(Cl)cc3Cl)c3ccc(Cl)cc3Cl)c2)cc1 (stereo not given) | 112% (inactive) |
| COc1cc(/C=C(\C#N)c2nc3ccccc3n2C)cc(OC)c1O | 333% (inactive) |
